Where two headings read alike, the source gives them in different places.
How the values were obtained:
Akt S473 phosphorylation = test: pS473-Akt HTRF assay; assay type: cell-based, Mouse; details: Mus musculus, N2a, Neuro 2A cells
Method: Neuro 2A cells were seeded (4,000 cells/well) in 4 µL of DMEM with 0.5% FBS and 1x Penicillin/Streptomycin in white solid bottom tissue-culture treated 1536-well plates (Greiner, 789173-F) with MultiDrop Combi Dispenser (Thermo Scientific). The cells were incubated for 24 h at 37 °C, 5% CO2, 95% humidity. Twenty-three nL of tested compounds were transferred to each well with an automated pin-tool station (Kalypsys). Following incubation for 15 min at 37 °C, 0.5 µL IGF (500 ng/mL of final concentration) was added and incubated for additional 40 min at 37 °C. After the addition of 1.5 µL 4x lysis buffer and 15-min incubation at room temperature (25 °C), 2 µL of HTRF® conjugated antibodies (fluorophore d2 conjugated anti-Akt monoclonal antibody and Europium^3+ cryptate-labeled anti-pS473-Akt monoclonal antibody, obtained from CisBio, 1:80 dilution) were added with BioRAPTR FRD™ (Beckman Coulter). The plates were incubated at room temperature for 20 h. The signal was measured by EnVision Multilabel Plate Reader (PerkinElmer) with excitation at 330 nm, emission at 620 nm (donor) and 665 nm (acceptor). Results were calculated and analyzed in a format of the ratio 665 nm/620 nm multiplied by 10^4.
Relative activity was calculated by normalizing each HTRF signal from each sample well to the mean HTRF signal from the DMSO-only control wells.
The Library of Pharmacologically Active Compounds (LOPAC, 1280 compounds) and the Molecular Library Small Molecular Repository Library (MLSMR, 373,868 compounds) were obtained from Sigma-Aldrich.
Quantitative HTS (qHTS) and curve response class classification
The qHTS screen was performed as described previously1. Each compound was titrated in seven concentrations. The final concentrations of the compounds assayed ranged from 4.9 nM to 76.6 µM. The curve response classifications (CRC), which can be used to depict potency, efficacy and reliability of the data, and to estimate an IC50 value, were determined by a customized software2. […]
Sigma-Aldrich) and the basal response (0% inhibition) was set to the DMSO control.
Efficacy of a compound refers to the highest response normalized to the maximal response of LY. The CRCs were grouped into 4 categories. Class 1 are well-fit and have both upper and lower asymptotes with efficacy greater than 30%
(Class1.1, >80% efficacy; Class 1.2; 30-80% efficacy). Class 2 are incomplete with only one asy mptote (Class 2.1, > 80% efficacy; Class 2.2, 30-80% % efficacy). Class 3 display activity only at the highest concentrations and efficacy >30%. Class 4 are with low efficacy (<30%) or no response and considered inactive3.

Neuro 2A cells = test: MTS cell proliferation assay; assay type: cell-based, Mouse; details: 1 day
Method: (§1) Neuro 2A cells or NIH/3T3 cells (ATCC) were seeded at various confluency in a 96-well plate in 100 µL DMEM containing 5% FBS or 10% FBS with 1% penicillin streptomucin, respectively, at 37 °C in a 5% CO2 and 95% humidity incubator for 18 hr. To each well 1 µL inhibitor with various concentrations or DMSO was added. The final concentrations of the tested inhibitors were 0, 5, 10, 20, 40 and 80 µM for G7 and LY, and 0, 5, 10, 20, 40 and 80 nM for Torin1, based on their respective IC50 values (~µM for G7 and LY and ~ nM for Torin 1). After 24 hr, 20 µL of CellTiter 96® AQueous One Solution Reagent (Promega) were added. The plate was placed in the incubator for 2 h and absorbance at 490 nm was measured with a Synergy HT Microplate Reader (Bio-Tek).

LNCaP cells = test: MTS cell proliferation assay; assay type: cell-based; details: 1 day, 40% confluent
Method: as §1
Fig. S8. Effect of G7 on proliferation of LNCaP cells. Cells that were 40% confluent in RPMI-1640 medium containing 10% FBS were treated with inhibitors for 1 day and subjected to MTS assays. *, µM for both G7 and LY and nM for Torin1. Data represent means ± SEM (n=3). G7, 4-phenylquinolin-2(1H)-one, LY, LY294002.

Akt = target: T1, Akt (Mus musculus, UniProt P31750); test: Akt activity assay (immunoprecipitated Akt, K-Lisa); assay type: cell-based; details: LY at 125 µM
T1 construct: subjected to immunoprecipitation using protein G-plus and anti-AKT PH domain (Millipore); endogenous in cells; host or cells: Neuro 2A (mouse neuroblastoma), IGF-stimulated
T1 sequence (P31750 whole entry, the tested form may be a part): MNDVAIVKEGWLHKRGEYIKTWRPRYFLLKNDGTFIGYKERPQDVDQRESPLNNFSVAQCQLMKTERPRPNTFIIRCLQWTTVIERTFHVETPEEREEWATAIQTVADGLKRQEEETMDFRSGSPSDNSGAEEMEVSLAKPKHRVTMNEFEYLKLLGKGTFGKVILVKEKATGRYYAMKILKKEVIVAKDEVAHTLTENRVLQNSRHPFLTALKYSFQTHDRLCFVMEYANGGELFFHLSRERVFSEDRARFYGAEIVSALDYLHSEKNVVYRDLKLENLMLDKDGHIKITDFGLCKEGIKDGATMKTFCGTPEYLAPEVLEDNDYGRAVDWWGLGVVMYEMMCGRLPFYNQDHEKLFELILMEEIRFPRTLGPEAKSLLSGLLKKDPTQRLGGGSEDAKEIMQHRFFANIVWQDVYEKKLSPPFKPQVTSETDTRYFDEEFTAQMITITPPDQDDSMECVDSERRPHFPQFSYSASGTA
Method: After overnight starvation by incubating with serum-free DMEM, Neuro 2A cells were treated with compound G7 at various concentrations for 30 min at room temperature followed by stimulation with IGF (final concentration of 100 ng/mL) for 30 min. Cells were lysed with lysis buffer containing 1% Triton X-100 and protease/phosphatase inhibitors (Cell Signaling Technology) and subjected to immunoprecipitation using protein G-plus and anti-AKT PH domain (Millipore). The activity of the immunopurified Akt was evaluated using a K-Lisa Akt activity kit (Millipore) in accordance with manufacturer’s instructions. The activity was normalized to Akt level in the immunoprecipitates determined by quantitative western blot analysis.

mTORC2 = test system: mTORC2; design: method as in PMID 22614243; details: cited from earlier work

| IC50 (Akt S473 phosphorylation; 384-well format, read-out: IC50) [nM] | IC50 (Akt S473 phosphorylation; 1536-well, inhibitor 15 min before IGF, read-out: apparent IC50) [nM] | IC50 (Akt S473 phosphorylation; inhibitor 15 min before IGF, read-out: IC50) [nM] | inhibition at 125 µM (Akt) [%] | SMILES | proliferation of Neuro 2A cells (Neuro 2A cells) | proliferation of LNCaP prostate cancer cells (LNCaP cells) | effect on mTORC2 activity (mTORC2) |
| --- | --- | --- | --- | --- | --- | --- | --- |
| 20 | ~20 | – | – | CCC(=O)N1CCN(c2ccc(-n3c(=O)ccc4cnc5ccc(-c6cnc7ccccc7c6)cc5c43)cc2C(F)(F)F)CC1 [Torin 1, 1-(4-(4-Propionylpiperazin-1-yl)-3-(trifluoromethyl)phenyl)-9-(quinolin-3-yl)benzo[h][1,6]naphthyridin-2(1H)-one] | inhibited the proliferation | inhibited the proliferation | – |
| – | – | 25000 | ~90 | O=c1cc(N2CCOCC2)oc2c(-c3ccccc3)cccc12 [LY294002, 2-(4-morpholinyl)-8-phenyl-4H-1-benzopyran-4-one] | inhibited the proliferation | inhibited the proliferation | – |
| – | – | – | – | NC1(c2ccc(-c3nc4ccn5c(=O)[nH]nc5c4cc3-c3ccccc3)cc2)CCC1 [MK-2206] | – | – | decrease mTORC2 activity |

From PMC5601486, “Identification of 4-phenylquinolin-2(1H)-one as a specific allosteric inhibitor of Akt” (Scientific Reports, 2017)
